This assay has as its system Eschericia coli strain ATCC25922. Description: standard microdilution assay to determine minimum inhibitory concentrations (MICs). The settings on record: Escherichia coli, ATCC25922, Eschericia coli strain ATCC25922, standard microdilution assay; read-out: E. coli ATCC25922 MIC. The assay is classed as cell-based. The gist of the method: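 Broth microdilution per CLSI protocols, typically 100 µL final volume, against E. coli ATCC25922. MIC values scored as +/− against a cutoff of 16 micrograms/ml.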
For orientation: Dilution methods test growth across graded concentrations, often in twofold steps.
Consider `NCCCNCc1ccc(-c2c[nH]c(NC(=O)Nc3ccc(Cl)cc3F)nc2=O)cc1F` [Compound 436], for which the MIC is less than 16 µg/mL.
On to `NCCCNCc1ccc(-c2c[nH]c(NC(=O)NCCc3c(Cl)cccc3Cl)nc2=O)cc1F` [Compound 437], for which the MIC was greater than 16 µg/mL.
For the compound `NCCCNCc1ccc(-c2c[nH]c(Nc3nc4cc(F)c(F)cc4[nH]3)nc2=O)cc1` [Compound 438], the MIC is less than 16 µg/mL.
Take `NCCCNCc1ccc(-c2c[nH]c(Nc3nc4cc(F)c(F)cc4[nH]3)nc2=O)cc1F` [Compound 439]: the MIC was less than 16 µg/mL.
Next, `O=C(Nc1nc(=O)c(-c2ccc(CNCCC3CC3)cc2)c[nH]1)Nc1ccccc1OC(F)(F)F` [Compound 441]: greater than 16 µg/mL.
Take `N#CCCCN(CCCN)Cc1ccc(-c2c[nH]c(NC(=O)Nc3cc(F)c(F)cc3F)nc2=O)cc1` [Compound 443]: the minimum inhibitory concentration (MIC) is greater than 16 µg/mL.
For the compound `NCCCN(CCCNC(N)=O)Cc1ccc(-c2c[nH]c(NC(=O)Nc3cc(F)c(F)cc3F)nc2=O)cc1` [Compound 444], the MIC is greater than 16 µg/mL.
In the case of `NCCCNCc1ccc(-c2c[nH]c(NC(=O)Nc3cccc4nsnc34)nc2=O)cc1F` [Compound 445], the MIC is greater than 16 µg/mL.
As for `Cc1ncc(-c2cccc(NC(=O)Nc3nc(=O)c(-c4ccc(CNCCCN)c(F)c4)c[nH]3)c2)s1` [Compound 446], the minimum inhibitory concentration (MIC) was greater than 16 µg/mL.
On to `O=C(Nc1nc(=O)c(-c2ccc(CNCCc3c[nH]c(=O)[nH]3)cc2)c[nH]1)Nc1ccccc1OC(F)(F)F` [Compound 448], for which the minimum inhibitory concentration (MIC) was greater than 16 µg/mL.
With `NCCCNCc1ccc(-c2c[nH]c(NC(=O)Nc3c(F)c(F)c(F)c(F)c3F)nc2=O)cc1F` [Compound 449], the minimal inhibitory concentration (MIC) was greater than 16 µg/mL.
For `NCCCNCc1ccc(-c2c[nH]c(NC(=O)Nc3cccc(Cl)c3F)nc2=O)cc1F` [Compound 450], the minimum inhibitory concentration (MIC) was less than 16 µg/mL.
In the case of `NCCCNCc1ccc(-c2c[nH]c(NC(=O)NCCc3ccc(Cl)c(Cl)c3)nc2=O)cc1F` [Compound 451] it was less than 16 µg/mL.
In the case of `N#Cc1ccc(NC(=O)Nc2nc(=O)c(-c3ccc(CN(CCCN)CCCNC(=N)N)cc3)c[nH]2)cc1` [Compound 452] it was less than 16 µg/mL; in that of `N=C(N)NCCCN(CCCN)Cc1ccc(-c2c[nH]c(NC(=O)Nc3cc(Cl)cc(Cl)c3)nc2=O)cc1` [Compound 453], less than 16 µg/mL.
With `NCCCNCc1ccc(-c2c[nH]c(Nc3nc4cc(F)c(F)cc4o3)nc2=O)cc1` [Compound 454], the MIC was less than 16 µg/mL.
On to `NCCCN1CCC(c2c[nH]c(NC(=O)Nc3ccccc3OC(F)(F)F)nc2=O)CC1` [Compound 455], for which the minimal inhibitory concentration (MIC) was greater than 16 µg/mL.
As to `NC(N)NCCCN1CCC(c2c[nH]c(NC(=O)Nc3ccccc3OC(F)(F)F)nc2=O)CC1` [Compound 456], the MIC was greater than 16 µg/mL.
Regarding `NCCCNCc1ccc(-c2c[nH]c(NC(=O)Nc3cc([N+](=O)[O-])ccc3Cl)nc2=O)cc1F` [Compound 457], the minimum inhibitory concentration (MIC) is greater than 16 µg/mL.
Next, `NCCCNCc1ccc(-c2c[nH]c(Nc3nc4cc(F)c(F)cc4[nH]3)nc2=O)c(F)c1` [Compound 458]: less than 16 µg/mL.
For `NCCCNCc1ccc(-c2c[nH]c(NC(=O)Nc3ccc(Cl)c(C(F)(F)F)c3)nc2=O)cc1F` [Compound 459], the MIC is greater than 16 µg/mL.
As for `NCCCNCc1ccc(-c2c[nH]c(NC(=O)Nc3c(Cl)cc(Cl)cc3Cl)nc2=O)cc1F` [Compound 461], the minimum inhibitory concentration (MIC) is greater than 16 µg/mL.
For the compound `NCCCNCc1ccc(-c2c[nH]c(NC(=O)Nc3ccc(F)c(F)c3F)nc2=O)cc1F` [Compound 462], the MIC is greater than 16 µg/mL.
Take `NCCCNCc1ccc(-c2c[nH]c(NC(=O)NCc3ccc(Cl)cc3Cl)nc2=O)cc1F` [Compound 463]: the minimal inhibitory concentration (MIC) was less than 16 µg/mL.
`NCCCNCc1ccc(-c2c[nH]c(NC(=O)NCc3ccc(Cl)c(Cl)c3)nc2=O)cc1F` [Compound 464]: the MIC was greater than 16 µg/mL.
As for `N=C(N)NCCCN(CCCN)Cc1ccc(-c2c[nH]c(NC(=O)NCCc3ccc(F)cc3)nc2=O)cc1` [Compound 465], the minimal inhibitory concentration (MIC) was greater than 16 µg/mL.
On to `N=C(N)NCCCC(CCCN)Cc1ccc(-c2c[nH]c(NC(=O)NCCc3cccc(Cl)c3)nc2=O)cc1` (centres unmarked) [Compound 466], for which the MIC is greater than 16 µg/mL.
Next, `NCCCNCc1ccc(-c2c[nH]c(Nc3nc4cc(F)c(F)cc4o3)nc2=O)c(F)c1` [Compound 467]: less than 16 µg/mL.
Turning to `NCCCN(CCCN)Cc1ccc(-c2c[nH]c(Nc3nc4cc(F)c(F)cc4[nH]3)nc2=O)cc1` [Compound 468], the MIC is less than 16 µg/mL.
For `NCCCN(CCCN)Cc1ccc(-c2c[nH]c(Nc3nc4cc(F)c(F)cc4o3)nc2=O)cc1` [Compound 470], the minimum inhibitory concentration (MIC) was less than 16 µg/mL.
On to `NCCCNCc1ccc(-c2c[nH]c(Nc3nc4cc(F)c(F)cc4o3)nc2=O)cc1F` [Compound 471], for which the MIC was less than 16 µg/mL.
As for `Cc1c(Cl)cc2nc(Nc3nc(=O)c(-c4ccc(CN(CCCN)CCCN)c(F)c4)c[nH]3)oc2c1Cl` [Compound 472], the MIC is greater than 16 µg/mL.
Consider `NCCCN(CCCN)Cc1ccc(-c2c[nH]c(Nc3nc4ccccc4[nH]3)nc2=O)cc1` [Compound 473], for which the MIC was greater than 16 µg/mL.
Next, `NCCCN(CCCNC(N)N)Cc1ccc(-c2c[nH]c(Nc3nc4ccccc4[nH]3)nc2=O)cc1` [Compound 474]: less than 16 µg/mL; `N=C(N)NCCCN(CCCN)Cc1ccc(-c2c[nH]c(NC(=O)NCCc3ccc(Cl)cc3Cl)nc2=O)cc1` [Compound 476]: greater than 16 µg/mL.
For `N=C(N)NCCCN(CCCN)Cc1ccc(-c2c[nH]c(NC(=O)NCCc3c(Cl)cccc3Cl)nc2=O)cc1` [Compound 477], the MIC was greater than 16 µg/mL.
Consider `N=C(N)NCCCN(CCCN)Cc1ccc(-c2c[nH]c(NC(=O)NCCc3ccc(Cl)c(Cl)c3)nc2=O)cc1` [Compound 478], for which the MIC is greater than 16 µg/mL.
For `NCCCNCc1ccc(-c2c[nH]c(NC(=O)Nc3c(Cl)cccc3Cl)nc2=O)cc1F` [Compound 479], the MIC was greater than 16 µg/mL.
Regarding `NCCCNCc1ccc(-c2c[nH]c(NC(=O)Nc3cc(Cl)ccc3Cl)nc2=O)cc1F` [Compound 480], the MIC was less than 16 µg/mL.
Next, `Cc1ccc(NC(=O)Nc2nc(=O)c(-c3ccc(CNCCCN)c(F)c3)c[nH]2)cc1C(F)(F)F` [Compound 481]: greater than 16 µg/mL.
Consider `NCCCNCc1ccc(-c2c[nH]c(NC(=O)Nc3cc(F)cc(C(F)(F)F)c3)nc2=O)cc1F` [Compound 482], for which the MIC is greater than 16 µg/mL.
In the case of `NCCCNCc1ccc(-c2c[nH]c(NC(=O)Nc3cc(N)ccc3Cl)nc2=O)cc1F` [Compound 483] it was greater than 16 µg/mL; in that of `N=C(N)NCCCN1CC2(CCN(c3c[nH]c(NC(=O)Nc4ccccc4OC(F)(F)F)nc3=O)CC2)C1` [Compound 484], greater than 16 µg/mL; in that of `NCCCNCc1ccc(-c2c[nH]c(NC(=O)Nc3cccc([N+](=O)[O-])c3)nc2=O)cc1F` [Compound 485], greater than 16 µg/mL.
For `N#Cc1cccc(NC(=O)Nc2nc(=O)c(-c3ccc(CNCCCN)c(F)c3)c[nH]2)c1` [Compound 486], the minimal inhibitory concentration (MIC) is greater than 16 µg/mL.
Next, `NCCCNCc1ccc(-c2c[nH]c(Nc3ccc(C(F)(F)F)cc3)nc2=O)cc1` [Compound 487]: greater than 16 µg/mL; `NCCCNCc1ccc(-c2c[nH]c(Nc3ccc(C(F)(F)F)cc3)nc2=O)cc1F` [Compound 488]: greater than 16 µg/mL; `NCCCN(CCCN)Cc1ccc(-c2c[nH]c(Nc3ccc(C(F)(F)F)cc3)nc2=O)cc1F` [Compound 489]: greater than 16 µg/mL.
In the case of `N=C(N)NCCCN(CCCN)Cc1ccc(-c2c[nH]c(Nc3ccc(C(F)(F)F)cc3)nc2=O)cc1F` [Compound 490] it was greater than 16 µg/mL.
As for `N=C(N)NCCCN1CCCN(c2c[nH]c(NC(=O)Nc3ccccc3OC(F)(F)F)nc2=O)CC1` [Compound 491], the MIC is greater than 16 µg/mL.
Consider `NCCCN1CCCN(c2c[nH]c(NC(=O)Nc3ccccc3OC(F)(F)F)nc2=O)CC1` [Compound 492], for which the MIC was greater than 16 µg/mL.
On to `NCCCNCc1ccc(-c2c[nH]c(Nc3nc4ccccc4[nH]3)nc2=O)c(F)c1` [Compound 493], for which the MIC was less than 16 µg/mL.
In the case of `NCCCNCc1ccc(-c2c[nH]c(NC(=O)Nc3ccc([N+](=O)[O-])cc3Cl)nc2=O)cc1F` [Compound 494] it was greater than 16 µg/mL; in that of `Cc1cc([N+](=O)[O-])ccc1NC(=O)Nc1nc(=O)c(-c2ccc(CNCCCN)c(F)c2)c[nH]1` [Compound 495], greater than 16 µg/mL.
Take `NCCCNCc1ccc(-c2c[nH]c(NC(=O)Nc3ccc(Cl)cc3Cl)nc2=O)cc1F` [Compound 496]: the MIC is less than 16 µg/mL.
In the case of `NCCCNCc1ccc(-c2c[nH]c(NC(=O)Nc3cc(C(F)(F)F)ccc3Cl)nc2=O)cc1F` [Compound 497], the minimum inhibitory concentration (MIC) was less than 16 µg/mL.
As to `NCCCCCN1CCC(c2c[nH]c(Nc3nc4ccccc4[nH]3)nc2=O)CC1` [Compound 499], the MIC was greater than 16 µg/mL.
As to `Cc1cc(CNCCCN)ccc1-c1c[nH]c(NC(=O)Nc2ccccc2OC(F)(F)F)nc1=O` [Compound 500], the minimal inhibitory concentration (MIC) was less than 16 µg/mL.
For `N=C(N)NCCCCCN1CCN(c2c[nH]c(NC(=O)Nc3cccc(Cl)c3F)nc2=O)CC1` [Compound 502], the minimum inhibitory concentration (MIC) is greater than 16 µg/mL.
For the compound `N=C(N)NCCCCCN1CCC(c2c[nH]c(Nc3nc4ccccc4[nH]3)nc2=O)CC1` [Compound 503], the MIC was greater than 16 µg/mL.
On to `NCCCCCN1CCN(c2c[nH]c(NC(=O)Nc3cc(F)c(F)cc3F)nc2=O)CC1` [Compound 504], for which the minimum inhibitory concentration (MIC) was greater than 16 µg/mL.
Consider `N=C(N)NCCCCCN1CCN(c2c[nH]c(NC(=O)Nc3cc(F)c(F)cc3F)nc2=O)CC1` [Compound 505], for which the MIC was greater than 16 µg/mL.
For `NCCCCN1CCC(c2c[nH]c(Nc3nc4ccccc4[nH]3)nc2=O)CC1` [Compound 509], the MIC is greater than 16 µg/mL.
In the case of `N=C(N)NCCCCN1CCC(c2c[nH]c(Nc3nc4ccccc4[nH]3)nc2=O)CC1` [Compound 510], the MIC is greater than 16 µg/mL.
Next, `NCCCNCc1ccc(-c2c[nH]c(NC(=O)NCCc3ccccc3OC(F)(F)F)nc2=O)cc1F` [Compound 512]: greater than 16 µg/mL.
With `N=C(N)NCCCNCc1ccc(-c2c[nH]c(NC(=O)NCCc3ccccc3OC(F)(F)F)nc2=O)cc1F` [Compound 513], the MIC was greater than 16 µg/mL.
Turning to `NCCCCCN1CCN(c2c[nH]c(Nc3nc4ccccc4[nH]3)nc2=O)CC1` [Compound 514], the MIC is greater than 16 µg/mL.
With `N=C(N)NCCCCCN1CCN(c2c[nH]c(Nc3nc4ccccc4[nH]3)nc2=O)CC1` [Compound 515], the minimal inhibitory concentration (MIC) is greater than 16 µg/mL.

One may read the MIC as the lowest concentration found to suppress growth.
